Experiments:
bermudagrass = assay: Test E pre-/postemergence herbicide test; type: in vivo, Cynodon dactylon
From the text: (§1) Seeds of plant species selected from bipinnate beggarticks (Bidens bipinnata L.), hairy beggarticks (Bidens radiata Thuill.), bermudagrass (Cynodon dactylon (L.) Pers.), Surinam grass (Urochloa decumbens (Staph) R. D. Webster, previously named Brachiaria decumbens Stapf), large crabgrass (Digitaria sanguinalis (L.) Scop.), green foxtail (Setaria viridis (L.) P. Beauv.), goosegrass (Eleusine indica (L.) Gaertn.), johnsongrass (Sorghum halepense (L.) Pers.), kochia (Kochia scoparia (L.) Schrad.), pitted morningglory (Ipomoea lacunosa L.), purple nutsedge (Cyperus rotundus L.), common ragweed (Ambrosia elatior L.), mustard (Brassica nigra (L.) W. D. J. Koch), guineagrass (Panicum maximum Jacq.), dallisgrass (Paspalum dilatatum Poir.), barnyardgrass (Echinochloa crus-galli (L). P. Beauv.), southern sandbur (Cenchrus echinatus L.), common sowthistle (Sonchus oleraceous L.), prickly sida (Sida spinosa L.), Italian ryegrass (Lolium multiflorum Lam.), common purslane (Portulaca oleracea L.), broadleaf signalgrass (Brachiaria platyphylla (Griseb.) Nash), common groundsel (Senecio vulgaris L.), common chickweed (Stellaria media (L.) Vill/Cyr.), tropical spiderwort (Commelina benghalensis L.), annual bluegrass (Poa annua L.), downy bromegrass (Bromus tectorum L.), itchgrass (Rottboellia cochinchinensis (L.) L.f.), quackgrass (Elytrigia repens (L.) Nevski), Canada horseweed (Erigeron Canadensis L.), field bindweed (Convolvulus arvensis L.), spotted spurge (Euphorbia maculata L.), common mallow (Malva sylvestris (=s silvestris) L.), and Russian thistle (Salsola kali L. ssp. Ruthenica (Iljin) Soo) were planted and treated preemergence with test chemicals formulated in a non-phytotoxic solvent mixture which included a surfactant.
(§2) At the same time, plants selected from these weed species were treated with postemergence applications of some of the test chemicals formulated in the same manner. Plants ranged in height from 2 to 18 cm (1- to 4-leaf stage) for postemergence treatments. Treated plants and controls were maintained in a greenhouse for 12 to 14 days, after which time all species were compared to controls and visually evaluated. Plant response ratings, summarized in Table E, are based on a scale of 0 to 100 where 0 is no effect and 100 is complete control. A dash (-) response means no test result.

green foxtail = assay: Test E pre-/postemergence herbicide test; type: in vivo, Setaria viridis
From the text: as §1, §2

common ragweed = assay: Test E pre-/postemergence herbicide test; type: in vivo, Ambrosia elatior
From the text: as §1, §2

mustard = assay: Test E pre-/postemergence herbicide test; type: in vivo, Brassica nigra
From the text: as §1, §2

barnyardgrass = assay: Test E pre-/postemergence herbicide test; type: in vivo, Echinochloa crus-galli
From the text: as §1, §2

common sowthistle = assay: Test E pre-/postemergence herbicide test; type: in vivo, Sonchus oleraceous
From the text: as §1, §2

common chickweed = assay: Test E pre-/postemergence herbicide test; type: in vivo, Stellaria media
From the text: as §1, §2

downy bromegrass = assay: Test E pre-/postemergence herbicide test; type: in vivo, Bromus tectorum
From the text: as §1, §2

field bindweed = assay: Test E pre-/postemergence herbicide test; type: in vivo, Convolvulus arvensis
From the text: as §1, §2

common mallow = assay: Test E pre-/postemergence herbicide test; type: in vivo, Malva sylvestris
From the text: as §1, §2

wild oat = assay: Test C postemergence herbicide test; type: in vivo, Avenafatua
How it was run: (§3)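 Visual rating, 0 (no effect) to 100 (complete control), vs. controls at 12–14 d in greenhouse. Postemergence: 1–4-leaf plants, 2–18 cm. Paddy: flooded, barnyardgrass at 2-leaf stage.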

windgrass = assay: Test C postemergence herbicide test; type: in vivo, Apera spica-venti
How it was run: as §3

prickly sida = assay: Test E pre-/postemergence herbicide test; type: in vivo, Sida spinosa; conditions: Preemergence
From the text: as §1, §2

[1] = Postemergence, 500 g ai/ha, scale 0 to 100
[2] = Postemergence, 250 g ai/ha, scale 0 to 100
[3] = Preemergence, 62 g ai/ha, scale 0 to 100
[4] = Preemergence, 125 g ai/ha, scale 0 to 100
[5] = Preemergence, 250 g ai/ha, scale 0 (no effect) to 100 (complete control)
[6] = Preemergence, 500 g ai/ha, scale 0 (no effect) to 100 (complete control)
[7] = postemergence, 125 g ai/ha, scale 0 to 100
[8] = postemergence, 62 g ai/ha, scale 0 to 100
[9] = Postemergence, 250 g ai/ha, scale 0 to 100, 0 no effect, 100 complete control

CCn1nc(C(C)(C)C)cc1C(=O)Nc1cc(C(=O)N(C)C)ccn1 [Compound 156, 2-[[[3-(1,1-dimethylethyl)-1-ethyl-1H-pyrazol-5-yl]carbonyl]amino]-N,N-dimethyl-4-pyridinecarboxamide]
Plant response rating, Bermudagrass (bermudagrass; [1]): 98
Plant response rating, Bermudagrass (bermudagrass; [2]): 95
Plant response rating, Bermudagrass (bermudagrass; [3]): 95
Plant response rating, Bermudagrass (bermudagrass; [4]): 100
Plant response rating, Bermudagrass (bermudagrass; [5]): 100
Plant response rating, Bermudagrass (bermudagrass; [6]): 100
Plant response rating, Bermudagrass (bermudagrass; [7]): 95
Plant response rating, Bermudagrass (bermudagrass; [8]): 65
Plant response rating, Foxtail, Green (green foxtail; [1]): 100
Plant response rating, Foxtail, Green (green foxtail; [2]): 100
Plant response rating, Foxtail, Green (green foxtail; [3]): 100
Plant response rating, Foxtail, Green (green foxtail; [4]): 100
Plant response rating, Foxtail, Green (green foxtail; [5]): 100
Plant response rating, Foxtail, Green (green foxtail; [6]): 100
Plant response rating, Foxtail, Green (green foxtail; [7]): 95
Plant response rating, Foxtail, Green (green foxtail; [8]): 75
Plant response rating, Ragweed (common ragweed; [1]): 98
Plant response rating, Ragweed (common ragweed; [2]): 90
Plant response rating, Ragweed (common ragweed; [3]): 50
Plant response rating, Ragweed (common ragweed; [4]): 90
Plant response rating, Ragweed (common ragweed; [5]): 95
Plant response rating, Ragweed (common ragweed; [6]): 100
Plant response rating, Ragweed (common ragweed; [7]): 90
Plant response rating, Ragweed (common ragweed; [8]): 80
Plant response rating, Black Mustard (mustard; [1]): 100
Plant response rating, Black Mustard (mustard; [2]): 100
Plant response rating, Black Mustard (mustard; [3]): 100
Plant response rating, Black Mustard (mustard; [4]): 100
Plant response rating, Black Mustard (mustard; [5]): 100
Plant response rating, Black Mustard (mustard; [6]): 100
Plant response rating, Black Mustard (mustard; [7]): 100
Plant response rating, Black Mustard (mustard; [8]): 98
Plant response rating, Barnyardgrass (barnyardgrass; [1]): 98
Plant response rating, Barnyardgrass (barnyardgrass; [2]): 98
Plant response rating, Barnyardgrass (barnyardgrass; [3]): 100
Plant response rating, Barnyardgrass (barnyardgrass; [4]): 100
Plant response rating, Barnyardgrass (barnyardgrass; [5]): 100
Plant response rating, Barnyardgrass (barnyardgrass; [6]): 100
Plant response rating, Barnyardgrass (barnyardgrass; [7]): 95
Plant response rating, Barnyardgrass (barnyardgrass; [8]): 90
Plant response rating, Sowthistle (common sowthistle; [1]): 100
Plant response rating, Sowthistle (common sowthistle; [2]): 100
Plant response rating, Sowthistle (common sowthistle; [3]): 60
Plant response rating, Sowthistle (common sowthistle; [4]): 100
Plant response rating, Sowthistle (common sowthistle; [5]): 100
Plant response rating, Sowthistle (common sowthistle; [6]): 100
Plant response rating, Sowthistle (common sowthistle; [7]): 90
Plant response rating, Sowthistle (common sowthistle; [8]): 90
Plant response rating, Chickweed (common chickweed; [1]): 100
Plant response rating, Chickweed (common chickweed; [2]): 100
Plant response rating, Chickweed (common chickweed; [3]): 80
Plant response rating, Chickweed (common chickweed; [4]): 100
Plant response rating, Chickweed (common chickweed; [5]): 100
Plant response rating, Chickweed (common chickweed; [6]): 100
Plant response rating, Chickweed (common chickweed; [7]): 100
Plant response rating, Chickweed (common chickweed; [8]): 100
Plant response rating, Bromegrass, Downy (downy bromegrass; [1]): 100
Plant response rating, Bromegrass, Downy (downy bromegrass; [2]): 100
Plant response rating, Bromegrass, Downy (downy bromegrass; [3]): 60
Plant response rating, Bromegrass, Downy (downy bromegrass; [4]): 80
Plant response rating, Bromegrass, Downy (downy bromegrass; [5]): 100
Plant response rating, Bromegrass, Downy (downy bromegrass; [6]): 100
Plant response rating, Bromegrass, Downy (downy bromegrass; [7]): 100
Plant response rating, Bromegrass, Downy (downy bromegrass; [8]): 90
Plant response rating, Bindweed, Field (field bindweed; [1]): 100
Plant response rating, Bindweed, Field (field bindweed; [2]): 80
Plant response rating, Bindweed, Field (field bindweed; [3]): 60
Plant response rating, Bindweed, Field (field bindweed; [4]): 90
Plant response rating, Bindweed, Field (field bindweed; [5]): 100
Plant response rating, Bindweed, Field (field bindweed; [6]): 100
Plant response rating, Bindweed, Field (field bindweed; [7]): 65
Plant response rating, Bindweed, Field (field bindweed; [8]): 65
Plant response rating, Mallow (common mallow; [1]): 100
Plant response rating, Mallow (common mallow; [2]): 95
Plant response rating, Mallow (common mallow; [3]): 70
Plant response rating, Mallow (common mallow; [4]): 100
Plant response rating, Mallow (common mallow; [5]): 100
Plant response rating, Mallow (common mallow; [6]): 100
Plant response rating, Mallow (common mallow; [7]): 90
Plant response rating, Mallow (common mallow; [8]): 80

CCN1N=C(C(C)(C)C)CC1C(=O)Nc1cc(C(=O)N(C)C)ccc1F (centres unmarked) [Compound 268, N-[5-[(dimethylamino)carbonyl]-2-fluorophenyl]-3-(1,1-dimethylethyl)-1-ethyl-4,5-dihydro-1H-pyrazole-5-carboxamide]
Plant response rating, Oat, Wild (wild oat; [9]): 65
Plant response rating, Oat, Wild (wild oat; [7]): 35
Plant response rating, Oat, Wild (wild oat; [8]): 20
Plant response rating, Windgrass (windgrass; [9]): 100
Plant response rating, Windgrass (windgrass; [7]): 60
Plant response rating, Windgrass (windgrass; [8]): 30
Plant response rating, Bermudagrass (bermudagrass; [3]): 60
Plant response rating, Bermudagrass (bermudagrass; [4]): 90
Plant response rating, Bermudagrass (bermudagrass; [5]): 95
Plant response rating, Bermudagrass (bermudagrass; [6]): 100
Plant response rating, Foxtail, Green (green foxtail; [3]): 70
Plant response rating, Foxtail, Green (green foxtail; [4]): 95
Plant response rating, Foxtail, Green (green foxtail; [5]): 100
Plant response rating, Foxtail, Green (green foxtail; [6]): 100
Plant response rating, Ragweed (common ragweed; [3]): 50
Plant response rating, Ragweed (common ragweed; [4]): 60
Plant response rating, Ragweed (common ragweed; [5]): 100
Plant response rating, Ragweed (common ragweed; [6]): 100
Plant response rating, Black Mustard (mustard; [3]): 90
Plant response rating, Black Mustard (mustard; [4]): 100
Plant response rating, Black Mustard (mustard; [5]): 100
Plant response rating, Black Mustard (mustard; [6]): 100
Plant response rating, Barnyardgrass (barnyardgrass; [3]): 60
Plant response rating, Barnyardgrass (barnyardgrass; [4]): 85
Plant response rating, Barnyardgrass (barnyardgrass; [5]): 100
Plant response rating, Barnyardgrass (barnyardgrass; [6]): 100
Plant response rating, Sowthistle (common sowthistle; [3]): 80
Plant response rating, Sowthistle (common sowthistle; [4]): 100
Plant response rating, Sowthistle (common sowthistle; [5]): 100
Plant response rating, Sowthistle (common sowthistle; [6]): 100
Plant response rating, Prickly Sida (prickly sida; 62 g ai/ha, scale 0 to 100): 60
Plant response rating, Prickly Sida (prickly sida; 125 g ai/ha, scale 0 to 100): 80
Plant response rating, Prickly Sida (prickly sida; 250 g ai/ha, scale 0 (no effect) to 100 (complete control)): 100
Plant response rating, Prickly Sida (prickly sida; 500 g ai/ha, scale 0 (no effect) to 100 (complete control)): 100
Plant response rating, Bromegrass, Downy (downy bromegrass; [4]): 80
Plant response rating, Bromegrass, Downy (downy bromegrass; [5]): 80
Plant response rating, Bromegrass, Downy (downy bromegrass; [6]): 100
Plant response rating, Bindweed, Field (field bindweed; [3]): 0
Plant response rating, Bindweed, Field (field bindweed; [4]): 20
Plant response rating, Bindweed, Field (field bindweed; [5]): 40
Plant response rating, Bindweed, Field (field bindweed; [6]): 70
Plant response rating, Mallow (common mallow; [3]): 50
Plant response rating, Mallow (common mallow; [4]): 50
Plant response rating, Mallow (common mallow; [5]): 80
Plant response rating, Mallow (common mallow; [6]): 90

Reference: patent US20060069132A1, “Azolecarboxamide herbicides” (priority 2004, published 2006)
